The record followed here is ChEMBL document CHEMBL3525902, “In vitro metabolism of oxymetazoline: evidence for bioactivation to a reactive metabolite” (Drug Metab Dispos, 2011).

In one series the target is T1, Cytochrome P450 2C8 (Homo sapiens, UniProt P10632).
T1 sequence (P10632 whole entry): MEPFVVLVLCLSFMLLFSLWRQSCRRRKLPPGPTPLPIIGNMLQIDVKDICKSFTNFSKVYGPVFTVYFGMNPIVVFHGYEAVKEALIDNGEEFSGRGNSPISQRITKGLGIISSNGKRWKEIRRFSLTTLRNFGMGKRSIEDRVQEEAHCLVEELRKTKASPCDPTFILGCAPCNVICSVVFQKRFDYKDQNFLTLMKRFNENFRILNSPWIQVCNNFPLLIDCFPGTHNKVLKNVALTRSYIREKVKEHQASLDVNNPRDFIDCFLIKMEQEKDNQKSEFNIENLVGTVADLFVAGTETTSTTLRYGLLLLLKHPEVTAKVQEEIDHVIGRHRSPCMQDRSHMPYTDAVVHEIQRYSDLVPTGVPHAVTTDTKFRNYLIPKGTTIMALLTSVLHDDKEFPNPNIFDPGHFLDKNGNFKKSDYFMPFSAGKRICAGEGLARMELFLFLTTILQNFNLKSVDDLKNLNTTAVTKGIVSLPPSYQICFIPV
As to the kind of experiment: Activity of human recombinant CYP2C8 assessed as metabolite formation at 50 uM in presence of NADPH by LC-MS/MS method. Particulars: recombinant enzyme. Type of series: ADME.

Series [1] is described as follows: Drug metabolism in NADPH supplemented human liver S9 fraction assessed as 3-((1H-imidazol-2-yl)methyl)-6-(1-hydroxy-2-methylpropan-2-yl)-2,4-dimethylphenol formation at 50 uM in presence of glutathione by LC-MS/MS method. It counts as ADME, subcellular. Particulars: s9, 50 µM.
Series [2] can be described thus: Drug metabolism in NADPH supplemented rabbit liver microsomes fraction assessed as 3-((1H-imidazol-2-yl)methyl)-6-tert-butyl-2,4-dimethylphenol formation at 50 uM after 1 hr by LC-MS/MS method. It counts as ADME, Oryctolagus cuniculus. (Microsomes from liver hold many membrane-bound enzymes, among them those of drug oxidation.)
The target in the next series is T2, Cytochrome P450 2C18 (Homo sapiens, UniProt P33260).
T2 sequence (P33260 whole entry): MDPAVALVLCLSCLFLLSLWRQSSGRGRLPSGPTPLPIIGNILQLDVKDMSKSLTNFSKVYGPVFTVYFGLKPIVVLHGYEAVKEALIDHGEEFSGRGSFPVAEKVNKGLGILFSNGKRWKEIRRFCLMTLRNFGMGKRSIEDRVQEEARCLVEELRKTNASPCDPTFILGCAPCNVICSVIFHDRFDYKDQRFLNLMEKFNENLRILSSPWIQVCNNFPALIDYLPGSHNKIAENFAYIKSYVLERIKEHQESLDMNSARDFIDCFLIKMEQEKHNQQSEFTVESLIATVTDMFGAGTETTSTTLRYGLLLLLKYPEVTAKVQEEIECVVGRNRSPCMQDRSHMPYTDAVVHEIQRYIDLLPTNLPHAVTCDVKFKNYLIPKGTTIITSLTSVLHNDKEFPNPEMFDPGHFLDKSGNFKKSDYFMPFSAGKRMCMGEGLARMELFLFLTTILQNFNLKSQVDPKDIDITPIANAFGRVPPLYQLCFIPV
As to the kind of experiment: Activity of human recombinant CYP2C18 assessed as metabolite formation at 50 uM in presence of NADPH by LC-MS/MS method. It counts as ADME. Particulars: recombinant enzyme.

Series [3] can be described thus: Drug metabolism in NADPH supplemented rat liver S9 fraction assessed as 3-((4,5-dihydro-1H-imidazol-2-yl)methyl)-6-(1-hydroxy-2-methylpropan-2-yl)-2,4-dimethylphenol formation at 50 uM in presence of glutathione by LC-MS/MS method. Type of series: ADME, subcellular. Particulars: s9, 50 µM.
Series [4] concerns the target T3, Cytochrome P450 2C19 (Homo sapiens, UniProt P33261). Kind of series: Activity of human recombinant CYP2C19 assessed as 3-((4,5-dihydro-1H-imidazol-2-yl)methyl)-6-(1-hydroxy-2-methylpropan-2-yl)-2,4-dimethylphenol formation at 50 uM in presence of NADPH by LC-MS/MS method. It counts as ADME. Particulars: recombinant enzyme.
Series [5] concerns Liver microsome. As to the kind of experiment: Drug metabolism in NADPH supplemented human liver microsomes fraction assessed as 3-((1H-imidazol-2-yl)methyl)-6-tert-butyl-2,4-dimethylphenol formation at 50 uM after 1 hr by LC-MS/MS method. Type of series: ADME.
The nature of series [6]: Drug metabolism in NADPH supplemented rat liver S9 fraction assessed as 3-((1H-imidazol-2-yl)methyl)-6-(1-hydroxy-2-methylpropan-2-yl)-2,4-dimethylphenol formation at 50 uM in presence of glutathione by LC-MS/MS method. Particulars: s9, 50 µM. It counts as ADME, subcellular.
A further series deals with T4, Cytochrome P450 1A2 (Homo sapiens, UniProt P05177).
T4 sequence (P05177 whole entry): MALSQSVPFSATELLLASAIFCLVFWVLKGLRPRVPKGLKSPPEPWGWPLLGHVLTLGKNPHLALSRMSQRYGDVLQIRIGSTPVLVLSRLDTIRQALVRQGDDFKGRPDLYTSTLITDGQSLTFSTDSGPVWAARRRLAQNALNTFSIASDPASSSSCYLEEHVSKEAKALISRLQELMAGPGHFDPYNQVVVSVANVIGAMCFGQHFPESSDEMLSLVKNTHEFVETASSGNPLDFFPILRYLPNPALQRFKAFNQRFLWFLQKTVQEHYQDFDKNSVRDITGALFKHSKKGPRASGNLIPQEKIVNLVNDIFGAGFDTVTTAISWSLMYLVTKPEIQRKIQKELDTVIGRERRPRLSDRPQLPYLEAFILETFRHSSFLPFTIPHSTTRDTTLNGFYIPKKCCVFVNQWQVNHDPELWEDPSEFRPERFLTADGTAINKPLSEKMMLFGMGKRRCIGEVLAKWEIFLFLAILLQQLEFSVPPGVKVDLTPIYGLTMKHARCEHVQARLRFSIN
Kind of series: Activity of human recombinant CYP1A2 assessed as metabolite formation at 50 uM in presence of NADPH by LC-MS/MS method. Particulars: recombinant enzyme. Type of series: ADME.

Series [7] deals with Liver microsome. As to the kind of experiment: Drug metabolism in NADPH supplemented rat liver microsomes fraction assessed as 3-((1H-imidazol-2-yl)methyl)-6-tert-butyl-2,4-dimethylphenol formation at 50 uM after 1 hr by LC-MS/MS method. Type of series: ADME.
Series [8] is described as follows: Drug metabolism in NADPH supplemented rabbit liver microsomes fraction assessed as 3-((1H-imidazol-2-yl)methyl)-6-(1-hydroxy-2-methylpropan-2-yl)-2,4-dimethylphenol formation at 50 uM after 1 hr by LC-MS/MS method. Type of series: ADME, Oryctolagus cuniculus.
Series [9] deals with T3, Cytochrome P450 2C19. As to the kind of experiment: Activity of human recombinant CYP2C19 assessed as (S)-2-amino-5-((R)-3-(5-tert-butyl-2-((4,5-dihydro-1H-imidazol-2-yl)methyl)-4-hydroxy-3-methylbenzylthio)-1-(carboxymethylamino)-1-oxopropan-2-ylamino)-5-oxopentanoic acid formation at 50 uM in presence of NADPH and glutathione by LC-MS/MS method. Type of series: ADME. Particulars: recombinant enzyme.

Series [10] has as its target T3, Cytochrome P450 2C19. Kind of series: Activity of human recombinant CYP2C19 assessed as 3-((1H-imidazol-2-yl)methyl)-6-(1-hydroxy-2-methylpropan-2-yl)-2,4-dimethylphenol formation at 50 uM in presence of NADPH by LC-MS/MS method. Type of series: ADME. Particulars: recombinant enzyme.
The target in series [11] is T3, Cytochrome P450 2C19. Kind of series: Activity of human recombinant CYP2C19 assessed as 3-((1H-imidazol-2-yl)methyl)-6-tert-butyl-2,4-dimethylphenol formation at 50 uM in presence of NADPH by LC-MS/MS method. It counts as ADME. Particulars: recombinant enzyme.
Series [12] can be described thus: Retention time of the compound at 50 uM by LC-MS/MS method. It counts as physicochemical.

T3 sequence (P33261 whole entry): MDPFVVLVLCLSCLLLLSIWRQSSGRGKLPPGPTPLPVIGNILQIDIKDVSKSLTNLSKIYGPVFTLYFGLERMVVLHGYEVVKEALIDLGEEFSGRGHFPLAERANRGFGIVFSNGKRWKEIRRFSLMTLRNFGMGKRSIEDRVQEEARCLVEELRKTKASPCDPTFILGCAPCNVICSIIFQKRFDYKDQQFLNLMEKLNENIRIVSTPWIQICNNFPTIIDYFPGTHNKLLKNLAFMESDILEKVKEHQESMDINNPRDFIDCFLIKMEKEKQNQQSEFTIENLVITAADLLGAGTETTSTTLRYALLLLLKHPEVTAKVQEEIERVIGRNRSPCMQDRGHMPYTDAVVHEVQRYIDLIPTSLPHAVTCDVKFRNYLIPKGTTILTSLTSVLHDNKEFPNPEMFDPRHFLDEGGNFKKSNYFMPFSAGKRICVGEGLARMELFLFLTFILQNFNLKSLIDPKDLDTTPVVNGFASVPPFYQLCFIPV

Turning to `Cc1cc(C(C)(C)C)c(O)c(C)c1CC1=NCCN1` [OXYMETAZOLINE], the Drug metabolism entry on Cytochrome P450 2C8 is “metabolite_not_detected”; in [1], “metabolite_detected”; in series [2], “metabolite_detected”; on Cytochrome P450 2C18, “metabolite_not_detected”; in [3] it was “metabolite_detected”; on Cytochrome P450 2C19 [4], “metabolite_detected”. Moreover, the Drug metabolism entry is given as “metabolite_detected” in the series with Liver microsome [5]; “metabolite_detected” in series [6]; “metabolite_not_detected” on Cytochrome P450 1A2; “metabolite_detected” in the series on Liver microsome [7]; “metabolite_detected” in series [8]; “metabolite_detected” on Cytochrome P450 2C19 [9]. Also, the Drug metabolism result on Cytochrome P450 2C19 [10] and on Cytochrome P450 2C19 [11] was “metabolite_detected” each time. For the same compound, the Retention_time in [12] is listed as 12.2 min.
